Measured values: patent US11612604B2, “Methods of treating cancer with PLK4 inhibitors” (LUDWIG INSTITUTE FOR CANCER RESEARCH LTD, priority 2017, dated 2023)

Target: T1, PLK4 (Homo sapiens, UniProt O00444)
T1 sequence (O00444 1-970): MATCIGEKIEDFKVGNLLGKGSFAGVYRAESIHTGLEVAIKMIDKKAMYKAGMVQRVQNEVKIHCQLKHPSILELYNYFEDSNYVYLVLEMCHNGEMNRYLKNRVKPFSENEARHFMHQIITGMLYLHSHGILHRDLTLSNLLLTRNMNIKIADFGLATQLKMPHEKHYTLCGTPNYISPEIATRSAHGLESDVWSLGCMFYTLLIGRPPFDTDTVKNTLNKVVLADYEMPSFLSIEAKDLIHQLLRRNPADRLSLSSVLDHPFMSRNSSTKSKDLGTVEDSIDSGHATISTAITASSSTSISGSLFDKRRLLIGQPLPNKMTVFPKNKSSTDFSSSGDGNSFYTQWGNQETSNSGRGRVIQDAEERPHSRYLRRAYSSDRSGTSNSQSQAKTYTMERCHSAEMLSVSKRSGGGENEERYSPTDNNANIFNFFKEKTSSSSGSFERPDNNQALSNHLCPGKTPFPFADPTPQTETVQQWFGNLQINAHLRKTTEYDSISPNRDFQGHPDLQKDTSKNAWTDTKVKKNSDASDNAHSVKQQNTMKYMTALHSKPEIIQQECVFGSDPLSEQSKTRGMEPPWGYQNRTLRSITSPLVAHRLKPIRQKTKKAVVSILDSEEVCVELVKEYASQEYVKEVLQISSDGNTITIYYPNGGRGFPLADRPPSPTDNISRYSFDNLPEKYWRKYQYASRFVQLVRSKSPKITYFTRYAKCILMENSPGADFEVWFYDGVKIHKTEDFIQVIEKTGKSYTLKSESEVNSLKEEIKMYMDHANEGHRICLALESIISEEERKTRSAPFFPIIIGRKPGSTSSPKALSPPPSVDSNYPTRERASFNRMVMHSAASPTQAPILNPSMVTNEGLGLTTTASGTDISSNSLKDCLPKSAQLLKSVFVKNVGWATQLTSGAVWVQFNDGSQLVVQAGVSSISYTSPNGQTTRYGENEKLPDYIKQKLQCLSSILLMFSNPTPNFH
Experiment: Activity (IC50) of the Table 1 compounds as PLK4 inhibitors
Type: biochemical
Conditions: Table 1, IC50 class

Compound | IC50 [nM]
Cc1cc(Nc2nc(Sc3ccc(NC(=O)C4CC4)cc3)nc(N3CCN(CCN(C)C)CC3)c2C)n[nH]1 | < 100
Cc1cc(Nc2nc(Sc3ccc(NC(=O)C4CC4)cc3)nc(N(C)C)c2C)n[nH]1 | < 100
CCN(C)c1nc(Sc2ccc(NC(=O)C3CC3)cc2)nc(Nc2cc(C)[nH]n2)c1C | < 100
CCN(CC)c1nc(Sc2ccc(NC(=O)C3CC3)cc2)nc(Nc2cc(C)[nH]n2)c1C | < 100
Cc1cc(Nc2nc(Sc3ccc(NC(=O)C4CC4)cc3)nc(Cl)c2C)n[nH]1 | < 100
Cc1cc(Nc2nc(Sc3ccc(NC(=O)C4CC4)cc3)nc(N(C)CCN(C)C)c2C)n[nH]1 | < 100
Cc1cc(Nc2nc(Sc3ccc(NC(=O)C4CC4)cc3)nc(NCCN(C)C)c2C)n[nH]1 | < 100
CNCCN(C)c1nc(Sc2ccc(NC(=O)C3CC3)cc2)nc(Nc2cc(C)[nH]n2)c1C | < 100
COC(=O)Nc1ccc(Sc2nc(Nc3cc(C)[nH]n3)c(C)c(N3CCCCC3)n2)cc1 | < 100
CC(=O)Nc1ccc(Sc2nc(Nc3cc(C)[nH]n3)c(C)c(N3CCC(F)(F)CC3)n2)cc1 | < 100
CC(=O)Nc1ccc(Sc2nc(Nc3cc(C)[nH]n3)c(C)c(N3CCC(F)CC3)n2)cc1 | < 100
COc1c(Nc2cc(C)[nH]n2)nc(Sc2ccc(S(=O)(=O)Cc3ccccc3)cc2)nc1N1CCC(CCN2CCN(C)CC2)CC1 | < 100
COc1c(Nc2cc(C)[nH]n2)nc(Sc2ccc(S(=O)(=O)Cc3ccccc3)cc2)nc1N1CCN(CCN2CCCCCC2)CC1 | < 100
COc1c(Nc2cc(C)[nH]n2)nc(Sc2ccc(NC(C)=O)cc2)nc1N1CCN(C2CCN(C)CC2)CC1 | < 100
COc1c(Nc2cc(C)[nH]n2)nc(Sc2ccc(NC(C)=O)cc2)nc1N1CCN(C)CC1 | < 100
CC(=O)Nc1ccc(Sc2nc(Nc3cc(C)[nH]n3)c(Cl)c(N3CCCCC3)n2)cc1 | < 100
CNc1ccc(Sc2nc(Nc3cc(C)[nH]n3)c(C)c(N3CCCCC3)n2)cc1 | < 100
Cc1cc(Nc2nc(Sc3ccc(N(C)C)cc3)nc(N3CCCCC3)c2C)n[nH]1 | < 100
CC(=O)Nc1ccc(Sc2nc(Nc3cc(C)[nH]n3)cc(N3CCCCC3)n2)cc1 | < 100
COc1c(Nc2cc(C)[nH]n2)nc(Sc2ccc(NC(C)=O)cc2)nc1N1CCNCC1 | < 100
CCN(CC)c1nc(Sc2ccc(NC(C)=O)cc2)nc(Nc2cc(C)[nH]n2)c1OC | < 100
CCN(C)c1nc(Sc2ccc(NC(C)=O)cc2)nc(Nc2cc(C)[nH]n2)c1OC | < 100
COc1c(Nc2cc(C)[nH]n2)nc(Sc2ccc(NC(C)=O)cc2)nc1N(C)C | < 100
COc1c(Nc2cc(C)[nH]n2)nc(Sc2ccc(NC(C)=O)cc2)nc1N1CCOCC1 | < 100
COc1c(Nc2cc(C)[nH]n2)nc(Sc2ccc(NC(C)=O)cc2)nc1N1CCN(C(C)=O)CC1 | < 100
COCCN1CCN(c2nc(Sc3ccc(NC(C)=O)cc3)nc(Nc3cc(C)[nH]n3)c2OC)CC1 | < 100

Compound | IC50 [nM]
COc1c(Nc2cc(C)[nH]n2)nc(Sc2ccc(NC(C)=O)cc2)nc1N1CCCC1 | < 100
COc1c(Nc2cc(C)[nH]n2)nc(Sc2ccc(NC(C)=O)cc2)nc1N(C)C(C)C | < 100
CC(=O)Nc1ccc(Sc2nc(Nc3cc(C)[nH]n3)c(C)c(N3CCCCC3C)n2)cc1 (stereo not drawn) | < 100
CCN1CCN(c2nc(Sc3ccc(NC(C)=O)cc3)nc(Nc3cc(C)[nH]n3)c2C)CC1 | < 100
COCC(=O)N1CCN(c2nc(Sc3ccc(NC(C)=O)cc3)nc(Nc3cc(C)[nH]n3)c2OC)CC1 | < 100
COc1c(Nc2cc(C)[nH]n2)nc(Sc2ccc(NC(C)=O)cc2)nc1N1CCC(F)(F)CC1 | < 100
COc1c(Nc2cc(C)[nH]n2)nc(Sc2ccc(NC(C)=O)cc2)nc1N1CCC(F)CC1 | < 100
COc1c(Nc2cc(C)[nH]n2)nc(Sc2ccc(NC(C)=O)cc2)nc1N1CCC(O)CC1 | < 100
COc1c(Nc2cc(C)[nH]n2)nc(Sc2ccc(NC(C)=O)cc2)nc1N1CC=CCC1 | < 100
COc1c(Nc2cc(C)[nH]n2)nc(Sc2ccc(NC(C)=O)cc2)nc1N1CC=C(F)CC1 | < 100
COc1c(Nc2cc(C)[nH]n2)nc(Sc2ccc(NC(C)=O)cc2)nc1N1CCC(C(C)=O)CC1 | < 100
COc1c(Nc2cc(C)[nH]n2)nc(Sc2ccc(NC(C)=O)cc2)nc1N1CCC(N)CC1 | < 100
COc1c(Nc2cc(C)[nH]n2)nc(Sc2ccc(NC(C)=O)cc2)nc1N1CCC(N(C)C)CC1 | < 100
CC(=O)Nc1ccc(Sc2nc(Nc3cc(C)[nH]n3)c(C)c(N3CCC(CCN(C)C)CC3)n2)cc1 | < 100
CCN1CCN(c2nc(Sc3ccc(NC(C)=O)cc3)nc(Nc3cc(C)[nH]n3)c2OC)CC1 | < 100
COc1c(Nc2cc(C)[nH]n2)nc(Sc2ccc(NC(C)=O)cc2)nc1N1CCN(C(=O)C(C)C)CC1 | < 100
CCC(=O)N1CCN(c2nc(Sc3ccc(NC(C)=O)cc3)nc(Nc3cc(C)[nH]n3)c2OC)CC1 | < 100
COc1c(Nc2cc(C)[nH]n2)nc(Sc2ccc(S(=O)(=O)Cc3ccccc3)cc2)nc1N1CCN(C2CCN(C)CC2)CC1 | < 100
COc1c(Nc2cc(C)[nH]n2)nc(Sc2ccc(S(=O)(=O)Cc3ccccc3)cc2)nc1N1CCC(N2CCN(C)CC2)CC1 | < 100
CSc1nc(Nc2cc(C)[nH]n2)c(C)c(N2CCC(O)CC2)n1 | < 100
CSc1nc(Nc2cc(C)[nH]n2)c(C)c(N2CCOCC2)n1 | < 100
CC(=O)Nc1ccc(Sc2nc(Nc3cc(C)[nH]n3)c(C)c(N3CCN(C(C)C)CC3)n2)cc1 | < 100
CC(=O)Nc1ccc(Sc2nc(Nc3cc(C)[nH]n3)c(C)c(N3CCN(C(=O)C(C)C)CC3)n2)cc1 | < 100
CNCC(=O)N1CCN(c2nc(Sc3ccc(NC(C)=O)cc3)nc(Nc3cc(C)[nH]n3)c2OC)CC1 | < 100
COc1c(Nc2cc(C)[nH]n2)nc(Sc2ccc(NC(C)=O)cc2)nc1N1CCN(C(=O)CN(C)C)CC1 | < 100
CNC1CCN(c2nc(Sc3ccc(NC(C)=O)cc3)nc(Nc3cc(C)[nH]n3)c2C)CC1 | < 100

Compound | IC50 [nM]
CC(=O)Nc1ccc(Sc2nc(Nc3cc(C)[nH]n3)c(C)c(N3CCC(C(C)=O)CC3)n2)cc1 | < 100
COc1c(Nc2cc(C)[nH]n2)nc(Sc2ccc(NC(C)=O)cc2)nc1N1CCN(C(C)C)CC1 | < 100
CNCC(=O)C1CCN(c2nc(Sc3ccc(NC(C)=O)cc3)nc(Nc3cc(C)[nH]n3)c2OC)CC1 | < 100
Cc1cc(Nc2nc(Sc3ccccc3)nc(N(C)C)c2C)n[nH]1 | < 100
CNC(=O)Nc1ccc(Sc2nc(Nc3cc(C)[nH]n3)c(C)c(N3CCC(O)CC3)n2)cc1 | < 100
CNC(=O)Nc1ccc(Sc2nc(Nc3cc(C)[nH]n3)c(C)c(N3CCOCC3)n2)cc1 | < 100
Cc1cc(Nc2nc(Sc3ccccc3)nc(N3CCC(O)CC3)c2C)n[nH]1 | < 100
COc1c(Nc2cc(C)[nH]n2)nc(Sc2ccc(S(=O)(=O)Cc3ccccc3)cc2)nc1N1CCN(CCN2CCCC2)CC1 | < 100
Cc1cc(Nc2nc(Sc3ccccc3)nc(N3CCOCC3)c2C)n[nH]1 | < 100
CC(=O)Nc1ccc(Sc2nc(Nc3cc(C)[nH]n3)c(C)c(N3CCC(N)CC3)n2)cc1 | < 100
CC(=O)Nc1ccc(Sc2nc(Nc3cc(C)[nH]n3)c(C)c(N3CCC(N(C)C)CC3)n2)cc1 | < 100
CC(=O)Nc1ccc(Sc2nc(Nc3cc(C)[nH]n3)c(C)c(N3CCC(C)(O)CC3)n2)cc1 | < 100
CCN(CC)c1nc(Sc2ccc(NC(C)=O)cc2)nc(Nc2cc(C)[nH]n2)c1C | < 100
Cc1cc(Nc2nc(Sc3ccc(N)cc3)nc(N3CCC(O)CC3)c2C)n[nH]1 | < 100
Cc1cc(Nc2nc(Sc3ccc(N)cc3)nc(N3CCOCC3)c2C)n[nH]1 | < 100
COCC(=O)N1CCN(c2nc(Sc3ccccc3)nc(Nc3cc(C)[nH]n3)c2C)CC1 | < 100
CSc1nc(Nc2cc(C)[nH]n2)c(C)c(N(C)C(C)C)n1 | < 100
COc1c(Nc2cc(C)[nH]n2)nc(Sc2ccc(NC(C)=O)cc2)nc1N1CCC(CCN(C)C)CC1 | < 100
CNC(=O)Nc1ccc(Sc2nc(Nc3cc(C)[nH]n3)c(C)c(N(C)C(C)C)n2)cc1 | < 100
CNC(=O)Nc1ccc(Sc2nc(Nc3cc(C)[nH]n3)c(C)c(N3CCN(C(=O)COC)CC3)n2)cc1 | < 100
Cc1cc(Nc2nc(Sc3ccc(N)cc3)nc(N(C)C(C)C)c2C)n[nH]1 | < 100
COCC(=O)N1CCN(c2nc(Sc3ccc(N)cc3)nc(Nc3cc(C)[nH]n3)c2C)CC1 | < 100
Cc1ccc(Sc2nc(Nc3cc(C)[nH]n3)c(C)c(N3CCC(O)CC3)n2)cc1 | < 100
Cc1ccc(Sc2nc(Nc3cc(C)[nH]n3)c(C)c(N3CCOCC3)n2)cc1 | < 100
COCC(=O)N1CCN(c2nc(Sc3ccc(C)cc3)nc(Nc3cc(C)[nH]n3)c2C)CC1 | < 100
COc1c(Nc2cc(C)[nH]n2)nc(Sc2ccc(S(=O)(=O)Cc3ccccc3)cc2)nc1N1CCN(CCN2CCCCC2)CC1 | < 100
